These results are taken from article PMC5678585, “Screening a protein kinase inhibitor library against Plasmodium falciparum” (Malaria Journal, 2017).

Counter-ions that a name gives are not always drawn. Like-named read-outs stand apart in the source and are kept apart here.

One may read the inhibition as the change of the read-out against control, counted positive when it falls.

Test [1] concerns Plasmodium falciparum 3D7. In words: microbe, parasite or virus in culture. The conditions noted are these: for Percentage inhibition of the growth of Plasmodium falciparum: Prestwick Library pilot screen, duplicate; for inhibition at 5 µM: 3D7, read-out: Percentage inhibition of the growth of Plasmodium falciparum, Prestwick Library pilot screen, screening conc. 0.005 mM, duplicate; for inhibition at 8 µM: 3D7, read-out: Percentage inhibition of the growth of Plasmodium falciparum, Prestwick Library pilot screen, screening conc. 0.008 mM, duplicate; for inhibition at 6 µM: 3D7, read-out: Percentage inhibition of the growth of Plasmodium falciparum, Prestwick Library pilot screen, screening conc. 0.006 mM, duplicate. Here is the method:
Growth inhibition was quantified using a fluorescence assay utilizing the binding of SYBR Green I to double stranded DNA, which emits a fluorescent signal at 528 nm after excitation at 485 nm. The SYBR Green assay system was adapted to maximize robustness and to align with available automation systems. The Prestwick Library then used as a pilot screen to validate the performance of the optimized assay. […] Single point screens were carried out, and the potency of compounds of interest was determined in duplicate on two independent occasions. A 96-well [^3H]-Hypoxanthine incorporation assay was also developed as a secondary assay in order to validate key compounds from each hit series in an orthogonal platform.
(§1) All data were processed using IDBS ActivityBase. […] The formula used to calculate Z’ is 1-3×(StDev_high+StDev_low)/ABS(Mean_high-Mean_low) .
Two independent assays were run.

Test [2] relates to normal diploid human fibroblasts (MRC-5 pd30). In words: cells. The format is cell-based. The conditions noted are these: Homo sapiens, MRC5; MRC-5 counter-screen plates; read-out: potency range (standard reference compound). The method, then: Cells were plated and incubated overnight to allow them to adhere as monolayers. A working stock of each test compound was transferred to an intermediate 384-well plate and pre-diluted with minimum essential media (MEM). The pre-diluted stocks were then transferred onto the cell monolayers, and the plates were incubated for 68 h. Resazurin, to a final concentration of 50 μM was added to each well, after which plates were incubated for a further 3 h and measured for fluorescence (λ ex = 528 nm, λ em = 590 nm).
as §1
All EC50 Curve fitting was undertaken using XLFit version 4.2 using Model 205 with the following 4 parametric equation: y=A+B-A/1+[…], where A = % inhibition at bottom, B = % inhibition at top, C = EC50, D = slope, x = inhibitor concentration and y = % inhibition.
On the technique in general: The purpose of a counterscreen is to sort out artefacts and off-target activity.

The mark [3] stands for this setting: Plasmodium falciparum, 3D7, read-out: Percentage inhibition of the growth of Plasmodium falciparum, Prestwick Library pilot screen, screening conc. 0.007 mM, duplicate.
The mark [4] stands for this setting: Plasmodium falciparum, read-out: Percentage inhibition of the growth of Plasmodium falciparum.
[5] abbreviates: Plasmodium falciparum, 3D7, read-out: Percentage inhibition of the growth of Plasmodium falciparum, Prestwick Library pilot screen, screening conc. 0.004 mM, duplicate.
Where [6] appears, read: Plasmodium falciparum, 3D7, read-out: Percentage inhibition of the growth of Plasmodium falciparum, Prestwick Library pilot screen, screening conc. 0.003 mM, duplicate.

As for `C[C@@H]1CC[C@H]2[C@@H](C)C(=O)O[C@@H]3O[C@@]4(C)CC[C@@H]1[C@]32OO4` [Artemisinin, reference compound], the inhibition at 7 µM in test [1] (setting [3]) was found to be 99.5 ± 0.1%. Also, in test [1] (screening conc. 0.007 mM), the “Percentage inhibition of the growth of Plasmodium falciparum” value (“Percentage inhibition” for short) worked out at 100%.

For the compound `CC[C@H]1CN2CCc3cc(OC)c(OC)cc3[C@@H]2C[C@@H]1C[C@H]1NCCc2cc(O)c(OC)cc21.Cl.Cl.O.O.O.O.O.O.O` [Cephaeline dihydrochloride heptahydrate, reference compound], the “Percentage inhibition” value in test [1] (screening conc. 0.003 mM) worked out at 101 ± 3%.

Consider `O=C1C(O)=C([C@H]2CC[C@H](c3ccc(Cl)cc3)CC2)C(=O)c2ccccc21` [Atovaquone, reference compound], for which the inhibition at 5 µM in test [1] (Plasmodium falciparum) worked out at 99 ± 2%.

With `COc1cccc2c1C(=O)c1c(O)c3c(c(O)c1C2=O)C[C@@](O)(C(C)=O)C[C@@H]3O[C@H]1C[C@H](N)[C@H](O)[C@H](C)O1` [Daunorubicin hydrochloride, reference compound], the inhibition at 4 µM in test [1] (setting [4]) was 132 ± 1%.

On to `CCC(=O)O[C@]1(C(=O)CCl)[C@@H](C)C[C@H]2[C@@H]3CCC4=CC(=O)C=C[C@]4(C)[C@@]3(F)[C@@H](O)C[C@@]21C` [Clobetasol propionate, reference compound], for which, in test [1] (setting [5]), the inhibition at 4 µM was 50 ± 16%.

Turning to Verteporfin [reference compound], the “Percentage inhibition” value in test [1] (screening conc. 0.003 mM) amounted to 95 ± 2%.

Regarding `COc1ccc2c(c1OC)CN1CCc3cc4c(cc3C1C2)OCO4` (stereo not drawn) [(d,l)-Tetrahydroberberine, reference compound], in test [1] (screening conc. 0.006 mM), the “Percentage inhibition” value amounted to 83 ± 2%.

As for `CCN(CC)CCCC(C)Nc1c2ccc(Cl)cc2nc2ccc(OC)cc12` (stereo not drawn) [Quinacrine dihydrochloride dihydrate, reference compound], the inhibition at 4 µM in test [1] (setting [5]) was 100 ± 2%.

For `COc1ccc2cc3[n+](cc2c1OC)CCc1cc2c(cc1-3)OCO2` [Berberine chloride, reference compound], the inhibition at 5 µM in test [1] (Plasmodium falciparum) is 99 ± 2%.

In the case of `Nc1nc(N)c2nc(-c3ccccc3)c(N)nc2n1` [Triamterene, reference compound], the inhibition at 8 µM in test [1] (Plasmodium falciparum) turned out to be 69 ± 1%.

`CC[C@H]1CN2CCc3cc(OC)c(OC)cc3[C@@H]2C[C@@H]1C[C@H]1NCCc2cc(OC)c(OC)cc21` [Emetine dihydrochloride, reference compound]: in test [1] (setting [5]), the inhibition at 4 µM came out at 103 ± 2%.

Take `COc1ccc(C[C@H](N)C(=O)N[C@H]2[C@@H](O)[C@H](n3cnc4c(N(C)C)ncnc43)O[C@@H]2CO)cc1` [Puromycin dihydrochloride, reference compound]: the inhibition at 4 µM in test [1] (setting [5]) was 96 ± 5%.

Turning to `[H]/N=C(\N/C(=N/[H])Nc1ccc(Cl)cc1)NC(C)C` [Proguanil hydrochloride, reference compound], the inhibition at 7 µM in test [1] (setting [3]) was 49 ± 4%.

For the compound `CCCCOc1ccc(CC(=O)NO)cc1` [Bufexamac, reference compound], the inhibition at 9 µM in test [1] (Plasmodium falciparum, 3D7, read-out: Percentage inhibition of the growth of Plasmodium falciparum, Prestwick Library pilot screen, screening conc. 0.009 mM, duplicate) was found to be 69 ± 2%.

In the case of `CCCCCCCCCCCCCCCC[N+](C)(C)CCN(Cc1ccc(OC)cc1)c1ncccn1` [Thonzonium bromide, reference compound], the inhibition at 3 µM in test [1] (setting [6]) was determined as 70 ± 1%.

Take `COc1cccc2c1C(=O)c1c(O)c3c(c(O)c1C2=O)C[C@@](O)(C(=O)CO)C[C@@H]3O[C@H]1C[C@H](N)[C@H](O)[C@H](C)O1` [Doxorubicin hydrochloride, reference compound]: in test [1] (setting [6]), the inhibition at 3 µM worked out at 137 ± 2%.

Take `COc1c(C)c2c(c(O)c1C/C=C(\C)CCC(=O)O)C(=O)OC2` [Mycophenolic acid, reference compound]: the inhibition at 6 µM in test [1] (Plasmodium falciparum) amounted to 63 ± 3%.

`O=C1c2c(O)ccc(O)c2C(=O)c2c(NCCNCCO)ccc(NCCNCCO)c21` [Mitoxantrone dihydrochloride, reference compound]: in test [1] (setting [5]), the inhibition at 4 µM came out at 140 ± 2%.

On to `C=C[C@H]1CN2CC[C@H]1C[C@@H]2[C@@H](O)c1ccnc2ccc(OC)cc12.Cl.O` [Quinidine hydrochloride monohydrate, reference compound], for which, in test [1] (screening conc. 0.005 mM), the “Percentage inhibition” value was 100 ± 2%.

Turning to `CCN(CC)CCCC(C)Nc1ccnc2cc(Cl)ccc12` (stereo not drawn) [Chloroquine diphosphate, reference compound], in test [1] (setting [4]), the inhibition at 4 µM is 104 ± 1%.

As to `CCCNCC(O)COc1ccccc1C(=O)CCc1ccccc1` (stereo not drawn) [Propafenone hydrochloride, reference compound], in test [1] (Plasmodium falciparum), the inhibition at 5 µM is 99 ± 1%.

Turning to `N=C(N)c1ccc(OCCCCCOc2ccc(C(=N)N)cc2)cc1` [Pentamidine isethionate, reference compound], the inhibition at 3 µM in test [1] (setting [6]) was 100 ± 4%.

Regarding `C[N+](C)(C)CCCCCCCCCC[N+](C)(C)C` [Decamethonium bromide, reference compound], in test [1] (Plasmodium falciparum), the inhibition at 5 µM is 64 ± 3%.

As for `COc1ccc(C[C@H]2NC[C@H](O)[C@H]2OC(C)=O)cc1` [Anisomycin, reference compound], the “Percentage inhibition” value in test [1] (screening conc. 0.008 mM) is 102 ± 2%.

`CCc1nc(N)nc(N)c1-c1ccc(Cl)cc1` [Pyrimethamine, reference compound]: the inhibition at 8 µM in test [1] (Plasmodium falciparum) was 101 ± 2%.

As to `OC(c1cc(C(F)(F)F)nc2c(C(F)(F)F)cccc12)C1CCCCN1` (stereo not drawn) [Mefloquine hydrochloride, reference compound], the inhibition at 5 µM in test [1] (Plasmodium falciparum) is 97.4 ± 0.4%.

With `C[C@@H]1C[C@@H]([C@H](O)CC2CC(=O)NC(=O)C2)C(=O)[C@@H](C)C1` [Cycloheximide, reference compound], in test [1] (setting [4]), the inhibition at 7 µM is 103.1 ± 0.1%.

With `C[N+](C)(CCOc1ccccc1)Cc1ccccc1.O=C([O-])c1cc2ccccc2cc1O` [Bephenium hydroxynaphthoate, reference compound], in test [1] (screening conc. 0.005 mM), the “Percentage inhibition” value was determined as 55.1 ± 0.5%.

For `COc1cc2nc(N3CCN(C(=O)C4COc5ccccc5O4)CC3)nc(N)c2cc1OC` (stereo not drawn) [Doxazosin mesylate, reference compound], the inhibition at 4 µM in test [1] (setting [5]) is 84 ± 0.6%.

With `Br.CC[C@H]1CN2CCC1C[C@H]2[C@H](O)c1ccnc2ccc(OC)cc12.O` (stereo partly drawn) [Hydroquinine hydrobromide hydrate, reference compound], in test [1] (screening conc. 0.005 mM), the “Percentage inhibition” value was 99 ± 2%.

In the case of `C=C[C@H]1C[N@@]2CC[C@H]1C[C@@H]2[C@@H](O)c1ccnc2ccccc12` [Cinchonine, reference compound], in test [1] (setting [3]), the inhibition at 7 µM was 101 ± 5%.

With `COc1ccc(CCN2CCC(Nc3nc4ccccc4n3Cc3ccc(F)cc3)CC2)cc1` [Astemizole, reference compound], the inhibition at 4 µM in test [1] (setting [5]) was found to be 97.3 ± 0.8%.

For the compound `C=C[C@H]1CN2CC[C@H]1C[C@H]2[C@H](O)c1ccnc2ccccc12` [(-)-Cinchonidine, reference compound], the “Percentage inhibition” value in test [1] (screening conc. 0.007 mM) was determined as 100 ± 1%.

Take `COc1cccc2c1C(=O)c1c(O)c3c(c(O)c1C2=O)C[C@@](O)(C(=O)CO)C[C@@H]3O[C@H]1C[C@H](N)[C@H](O)[C@H](C)O1` [doxorubicin, reference compound]: in test [2], the EC50 lay in the range of 0.2 to 0.4 µM.

As for `CN1C[C@H](CNC(=O)OCc2ccccc2)C[C@@H]2c3cccc4c3c(cn4C)C[C@H]21` [Metergoline, reference compound], in test [1] (Plasmodium falciparum), the inhibition at 5 µM was 56 ± 2%.

Turning to `CN(CCCCCCCCCCN(C)C(=O)Oc1cccc([N+](C)(C)C)c1)C(=O)Oc1cccc([N+](C)(C)C)c1` [Demecarium bromide, reference compound], in test [1] (setting [4]), the inhibition at 3 µM stood at 104 ± 2%.

Regarding `CCCCCCCCNC(C)C(O)c1ccc(SC(C)C)cc1` (stereo not drawn) [Suloctidil, reference compound], in test [1] (Plasmodium falciparum), the inhibition at 6 µM turned out to be 101 ± 1%.

For `CC(=O)O[C@H]1C(=O)[C@@]2(C)[C@H]([C@H](OC(=O)c3ccccc3)[C@]3(O)C[C@H](OC(=O)[C@H](O)[C@@H](NC(=O)c4ccccc4)c4ccccc4)C(C)=C1C3(C)C)[C@]1(OC(C)=O)CO[C@@H]1C[C@@H]2O` [Paclitaxel, reference compound], the inhibition at 2 µM in test [1] (Plasmodium falciparum, 3D7, read-out: Percentage inhibition of the growth of Plasmodium falciparum, Prestwick Library pilot screen, screening conc. 0.002 mM, duplicate) amounted to 65 ± 2%.

Turning to `CN(Cc1cnc2nc(N)nc(N)c2n1)c1ccc(C(=O)N[C@@H](CCC(=O)O)C(=O)O)cc1` [Methotrexate, reference compound], the inhibition at 4 µM in test [1] (setting [5]) came to 100.9 ± 0.7%.

With `[H]/N=C(\N/C(=N/[H])NCCCCCCNC(=N)NC(=N)Nc1ccc(Cl)cc1)Nc1ccc(Cl)cc1` [Chlorhexidine, reference compound], the inhibition at 4 µM in test [1] (setting [5]) was found to be 98 ± 1%.

Consider `COc1cc(NC(C)CCCN)c2ncccc2c1` (stereo not drawn) [Primaquine diphosphate, reference compound], for which, in test [1] (setting [5]), the inhibition at 4 µM amounted to 100 ± 4%.
